Results published in ChEMBL document CHEMBL1124435, “Evaluation of glycolamide esters and various other esters of aspirin as true aspirin prodrugs” (J Med Chem, 1989).
Values after ≈ are worked out from the molar mass of the structure shown.

What was measured:
[1] = organism: Homo sapiens; experiment: Percentage of aspirin formed during hydrolysis in 10% human plasma at pH 7.4 at 37 degrees celsius
[2] = Observed pseudo-first order rate constant
[3] = physchem
[4] = Observed second order rate constant
[5] = in vitro; settings: human, 10% human plasma
[6] = Partition coefficient (logP); settings: octanol/water
[7] = in vitro; settings: human, 10% human plasma, pH 7.4
Description: Michaelis-Menten constant(Km) for hydrolysis in 10% human plasma(pH 7.4) at 37 degrees celsius

[8] = organism: Homo sapiens; experiment: Percentage of aspirin formed during hydrolysis in undiluted human plasma at pH 7.4 at 37 degrees celsius
[9] = (§1) Observed first order rate constant
[10] = as §1; format: ADME

Aspirin formed [1] [%]	K obs [2] [min⁻¹]	solubility [3] [mg/mL]	K2 [4] [min⁻¹]	half-life [5] [min]	logP [6]	Km [7] [µM]	Aspirin formed [8] [%]	K1 [9] [min⁻¹]	10E2 K1 [10] [min⁻¹]	SMILES
0	0.53	0.02 (≈ 0.078 mM)	0.53	1.3	2.88	–	–	–	–	CC(=O)Oc1ccccc1C(=O)Oc1ccccc1
0	0.315	–	0.315	2.2	1.67	–	–	–	–	CCOC(=O)COC(=O)c1ccccc1OC(C)=O
0	0.34	0.96 (≈ 2.85 mM)	0.34	2	1.67	–	–	–	–	CCOC(=O)CN(C)C(=O)COC(=O)c1ccccc1OC(C)=O
0	0.205	–	0.205	3.4	–	–	–	–	–	CC(=O)Oc1ccccc1C(=O)OCCN(C)C(C)=O
0	0.136	–	0.136	5.1	-0.43	–	–	–	–	CC(=O)Oc1ccccc1C(=O)OCC(=O)NCC(N)=O
50	0.209	–	0.105	3.3	0.38	196	49	0.105	–	CC(=O)Oc1ccccc1C(=O)OCC(=O)N(C)C
0	0.465	0.55 (≈ 2.29 mM)	0.465	1.5	1.94	–	–	–	–	CSCOC(=O)c1ccccc1OC(C)=O
29	0.395	2.43 (≈ 9.63 mM)	0.28	1.8	1.42	–	28	0.115	–	CC(=O)OCOC(=O)c1ccccc1OC(C)=O
38	0.184	–	0.114	3.8	0.06	–	40	0.0699	–	CC(=O)Oc1ccccc1C(=O)OCC(=O)N(C)CCO
30	0.207	4.23 (≈ 16.5 mM)	0.145	3.3	0.11	–	31	0.0621	–	CC(=O)Oc1ccccc1C(=O)OC[S+](C)[O-] (configuration not stated)
0	0.723	0.35 (≈ 1.25 mM)	0.723	1	–	–	–	–	–	CCCC(=O)OCOC(=O)c1ccccc1OC(C)=O
0	0.0094	–	0.0094	73.7	–	–	–	–	–	CC(=O)Oc1ccccc1C(=O)Oc1ccccc1C(=O)O [DIPLOSALSALATE]
0	0.214	2.81 (≈ 14.5 mM)	0.214	3.2	1.46	–	–	–	–	COC(=O)c1ccccc1OC(C)=O
0	0.212	4.32 (≈ 13.4 mM)	0.212	3.3	0.99	–	–	–	–	CCOC(=O)CNC(=O)COC(=O)c1ccccc1OC(C)=O
6	2.65	> 200	2.49	0.26	–	49	8	0.159	–	CC(=O)Oc1ccccc1C(=O)OCCN(C)C.Cl
0	0.0335	–	0.0335	20.7	–	–	–	–	–	CC(=O)Oc1ccccc1C(=O)OCC(=O)N(C1CCCCC1)C1CCCCC1
0	0.26	5.52 (≈ 20.8 mM)	0.26	2.7	0.9	–	–	–	–	CCNC(=O)COC(=O)c1ccccc1OC(C)=O
20	0.0462	–	0.037	15	2.03	–	21	0.0092	–	CC(=O)Oc1ccccc1C(=O)OCC(=O)N(C(C)C)C(C)C
0	0.487	0.02 (≈ 0.0638 mM)	0.487	1.4	2.15	–	–	–	–	CC(=O)Nc1ccc(OC(=O)c2ccccc2OC(C)=O)cc1 [BENORILATE]
37	0.0924	–	0.0582	7.5	-0.46	380	–	–	3.42	CC(=O)Oc1ccccc1C(=O)OCC(=O)N(C)CC(N)=O
